Experimental data reported in US10435399B2, “HDAC6 inhibitory heterocyclic compound” (TAKEDA PHARMACEUTICAL COMPANY LIMITED, priority 2017, dated 2019).

biological target: T1, HDAC6 enzyme (Homo sapiens, UniProt Q9UBN7); assay: HDAC6 enzyme inhibitory activity (HDAC-Glo I/II Assay kit); assay type: biochemical; conditions: 10 μM; wells without enzyme = 100% inhibition; read-out: HDAC6 inhibitory rate (%) (10 μM)
T1 construct: transducing full length HDAC6 gene into Sf-9 insect cells; GST; purchased SignalChem; host or cells: Sf-9 insect cells
T1 sequence (Q9UBN7 1-1215): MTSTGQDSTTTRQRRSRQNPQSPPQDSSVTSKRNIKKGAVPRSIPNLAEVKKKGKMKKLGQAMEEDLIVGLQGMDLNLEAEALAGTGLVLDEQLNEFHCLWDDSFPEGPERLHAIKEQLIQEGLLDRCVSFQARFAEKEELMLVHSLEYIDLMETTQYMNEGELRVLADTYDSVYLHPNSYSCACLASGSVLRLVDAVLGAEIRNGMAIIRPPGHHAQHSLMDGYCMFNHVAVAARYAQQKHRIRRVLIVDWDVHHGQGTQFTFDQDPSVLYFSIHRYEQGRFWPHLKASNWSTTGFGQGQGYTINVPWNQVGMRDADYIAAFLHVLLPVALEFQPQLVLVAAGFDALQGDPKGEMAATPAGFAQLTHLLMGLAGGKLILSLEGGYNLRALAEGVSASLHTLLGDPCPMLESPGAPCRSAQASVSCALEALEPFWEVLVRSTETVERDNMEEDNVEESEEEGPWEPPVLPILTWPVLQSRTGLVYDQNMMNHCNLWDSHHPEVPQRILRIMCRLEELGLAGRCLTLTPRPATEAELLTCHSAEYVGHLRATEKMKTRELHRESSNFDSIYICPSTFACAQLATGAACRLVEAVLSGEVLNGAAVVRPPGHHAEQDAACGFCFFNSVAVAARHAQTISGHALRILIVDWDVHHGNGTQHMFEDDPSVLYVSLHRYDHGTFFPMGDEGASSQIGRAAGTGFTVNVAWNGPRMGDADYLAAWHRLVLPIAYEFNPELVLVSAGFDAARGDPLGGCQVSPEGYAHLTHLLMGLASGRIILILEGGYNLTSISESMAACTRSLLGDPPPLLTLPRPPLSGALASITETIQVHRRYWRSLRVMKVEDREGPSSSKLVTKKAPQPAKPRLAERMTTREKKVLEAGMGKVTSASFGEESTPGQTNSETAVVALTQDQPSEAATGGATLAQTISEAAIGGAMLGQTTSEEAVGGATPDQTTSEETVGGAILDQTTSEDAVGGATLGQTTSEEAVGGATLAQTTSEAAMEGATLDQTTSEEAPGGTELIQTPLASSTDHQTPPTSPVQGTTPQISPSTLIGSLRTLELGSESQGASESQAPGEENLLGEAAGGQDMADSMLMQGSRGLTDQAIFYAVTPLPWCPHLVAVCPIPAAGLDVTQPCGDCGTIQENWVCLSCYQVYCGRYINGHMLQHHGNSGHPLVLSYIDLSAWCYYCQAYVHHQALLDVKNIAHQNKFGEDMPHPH
Summary of the method: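 Test compound is preincubated 60 min at RT with full-length insect-cell HDAC6 in Tris-HCl pH 7.5 with 135 mM NaCl and 1 mM MgCl2. A 20 min room-temperature HDAC-Glo reaction follows, with luminescent read-out.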

Structure (SMILES) | inhibition at 10 µM [%]
O=C1c2cc(-c3nnc(C(F)F)o3)ccc2CN1c1ccccc1-c1cccc(Cl)c1 [Example 283, 2-(3′-chlorobiphenyl-2-yl)-6-(5-(difluoromethyl)-1,3,4-oxadiazol-2-yl)isoindolin-1-one] | 99
O=C1c2cc(-c3nnc(C(F)F)o3)ccc2CN1c1ccccc1-c1cc(F)cc(F)c1 [Example 284, 2-(3′,5′-difluorobiphenyl-2-yl)-6-(5-(difluoromethyl)-1,3,4-oxadiazol-2-yl)isoindolin-1-one] | 101
O=C1c2cc(-c3nnc(C(F)F)o3)ccc2CN1c1ccccc1-c1ccc(C2CC2)cc1 [Example 285, 2-(4′-cyclopropylbiphenyl-2-yl)-6-(5-(difluoromethyl)-1,3,4-oxadiazol-2-yl)isoindolin-1-one] | 95
O=C1c2cc(-c3nnc(C(F)F)o3)ccc2CN1c1ccccc1-c1cccc(C2CC2)c1 [Example 286, 2-(3′-cyclopropylbiphenyl-2-yl)-6-(5-(difluoromethyl)-1,3,4-oxadiazol-2-yl)isoindolin-1-one] | 99
O=C1c2cc(-c3nnc(C(F)F)o3)ccc2CN1c1ccccc1-c1ccc2c(c1)CCO2 [Example 287, 6-(5-(difluoromethyl)-1,3,4-oxadiazol-2-yl)-2-(2-(2,3-dihydro-1-benzofuran-5-yl)phenyl)isoindolin-1-one] | 100
O=C1c2cc(-c3nnc(C(F)F)o3)ccc2CN1c1ccccc1-c1cccc2c1CCO2 [Example 288, 6-(5-(difluoromethyl)-1,3,4-oxadiazol-2-yl)-2-(2-(2,3-dihydro-1-benzofuran-4-yl)phenyl)isoindolin-1-one] | 102
O=C1c2cc(-c3nnc(C(F)F)o3)ccc2CN1c1ccccc1-c1cccc2c1OCC2 [Example 289, 6-(5-(difluoromethyl)-1,3,4-oxadiazol-2-yl)-2-(2-(2,3-dihydro-1-benzofuran-7-yl)phenyl)isoindolin-1-one] | 101
CCOc1cc(-c2ccccc2N2Cc3ccc(-c4nnc(C(F)F)o4)cc3C2=O)ccn1 [Example 290, 6-(5-(difluoromethyl)-1,3,4-oxadiazol-2-yl)-2-(2-(2-ethoxypyridin-4-yl)-phenyl)isoindolin-1-one] | 99
CCOc1cnccc1-c1ccccc1N1Cc2ccc(-c3nnc(C(F)F)o3)cc2C1=O [Example 291, 6-(5-(difluoromethyl)-1,3,4-oxadiazol-2-yl)-2-(2-(3-ethoxypyridin-4-yl)-phenyl)isoindolin-1-one] | 98
O=C1c2cc(-c3nnc(C(F)F)o3)ccc2CN1c1ccccc1-c1ccc(C(F)F)cc1 [Example 292, 2-(4′-(difluoromethyl)-biphenyl-2-yl)-6-(5-(difluoromethyl)-1,3,4-oxadiazol-2-yl)isoindolin-1-one] | 97
O=C1c2cc(-c3nnc(C(F)F)o3)ccc2CN1c1ccccc1-c1cccc(C(F)F)c1 [Example 293, 2-(3′-(difluoromethyl)-biphenyl-2-yl)-6-(5-(difluoromethyl)-1,3,4-oxadiazol-2-yl)isoindolin-1-one] | 100
CC(C)Oc1cc(-c2ccccc2N2Cc3ccc(-c4nnc(C(F)F)o4)cc3C2=O)ccn1 [Example 294, 6-(5-(difluoromethyl)-1,3,4-oxadiazol-2-yl)-2-(2-(2-isopropoxypyridin-4-yl)phenyl)isoindolin-1-one] | 100
COc1ncc(Cl)cc1-c1ccccc1N1Cc2ccc(-c3nnc(C(F)F)o3)cc2C1=O [Example 295, 2-(2-(5-chloro-2-methoxy-pyridin-3-yl)phenyl)-6-(5-(difluoromethyl)-1,3,4-oxadiazol-2-yl)isoindolin-1-one] | 102
O=C1c2cc(-c3nnc(C(F)F)o3)ccc2CN1c1ccccc1-c1cccc(OC(F)F)c1 [Example 296, 2-(3′(difluoromethoxy)-biphenyl-2-yl)-6-(5-(difluoromethyl)-1,3,4-oxadiazol-2-yl)isoindolin-1-one] | 101
O=C1c2cc(-c3nnc(C(F)F)o3)ccc2CN1c1ccccc1-c1cncc(C(F)(F)F)c1 [Example 297, 6-(5-(difluoromethyl)-1,3,4-oxadiazol-2-yl)-2-(2-(5-(trifluoromethyl)pyridin-3-yl)phenyl)isoindolin-1-one] | 98
O=C1c2cc(-c3nnc(C(F)F)o3)ccc2CN1c1ccccc1-c1ccccc1OC(F)(F)F [Example 298, 6-(5-(difluoromethyl)-1,3,4-oxadiazol-2-yl)-2-(2′-(trifluoromethoxy)biphenyl-2-yl)isoindolin-1-one] | 100
O=C1c2cc(-c3nnc(C(F)F)o3)ccc2CN1c1ccccc1-c1ccc(OC(F)(F)F)cc1 [Example 299, 6-(5-(difluoromethyl)-1,3,4-oxadiazol-2-yl)-2-(4′-(trifluoromethoxy)biphenyl-2-yl)isoindolin-1-one] | 94
O=C1c2cc(-c3nnc(C(F)F)o3)ccc2CN1c1ccccc1-c1cccc(OC(F)(F)F)c1 [Example 300, 6-(5-(difluoromethyl)-1,3,4-oxadiazol-2-yl)-2-(3′-(trifluoromethoxy)biphenyl-2-yl)isoindolin-1-one] | 97
O=C1c2cc(-c3nnc(C(F)F)o3)ccc2CN1c1ccccc1-c1cccc(F)n1 [Example 301, 6-(5-(difluoromethyl)-1,3,4-oxadiazol-2-yl)-2-(2-(6-fluoropyridin-2-yl)phenyl)-isoindolin-1-one] | 106
COc1cccc(-c2ccccc2N2Cc3ccc(-c4nnc(C(F)F)o4)cc3C2=O)n1 [Example 302, 6-(5-(difluoromethyl)-1,3,4-oxadiazol-2-yl)-2-(2-(6-methoxypyridin-2-yl)-phenyl)isoindolin-1-one] | 100
O=C1c2cc(-c3nnc(C(F)F)o3)ccc2CN1c1ccccc1-c1cnc2occc2c1 [Example 303, 6-(5-(difluoromethyl)-1,3,4-oxadiazol-2-yl)-2-(2-(furo-[2,3-b]pyridin-5-yl)phenyl)-isoindolin-1-one] | 99
O=C1c2cc(-c3nnc(C(F)F)o3)ccc2CN1c1ccccc1-c1ccc2c(c1)OCC2 [Example 304, 6-(5-(difluoromethyl)-1,3,4-oxadiazol-2-yl)-2-(2-(2,3-dihydro-1-benzofuran-6-yl)phenyl)isoindolin-1-one] | 99
O=C1c2cc(-c3nnc(C(F)F)o3)ccc2CN1c1ccccc1-c1cccc(Cl)n1 [Example 305, 2-(2-(6-chloropyridin-2-yl)-phenyl)-6-(5-(difluoro-methyl)-1,3,4-oxadiazol-2-yl)isoindolin-1-one] | 101
Cc1cn2cc(-c3ccccc3N3Cc4ccc(-c5nnc(C(F)F)o5)cc4C3=O)ccc2n1 [Example 306, 6-(5-(difluoromethyl)-1,3,4-oxadiazol-2-yl)-2-(2-(2-methylimidazo[1,2-a]-pyridin-6-yl)phenyl)-isoindolin-1-one] | 101
O=C1c2cc(-c3nnc(C(F)F)o3)ccc2CN1c1ccccc1-c1ccc(F)c(F)c1 [Example 307, 2-(3′,4′-difluorobiphenyl-2-yl)-6-(5-(difluoromethyl)-1,3,4-oxadiazol-2-yl)-isoindolin-1-one] | 98
O=C1c2cc(-c3nnc(C(F)F)o3)ccc2CN1c1ccccc1-c1cccc(F)c1F [Example 308, 2-(2′,3′-difluorobiphenyl-2-yl)-6-(5-(difluoromethyl)-1,3,4-oxadiazol-2-yl)-isoindolin-1-one] | 97
O=C1c2cc(-c3nnc(C(F)F)o3)ccc2CN1c1ccccc1-c1cc(F)ccc1F [Example 309, 2-(2′,5′-difluorobiphenyl-2-yl)-6-(5-(difluoromethyl)-1,3,4-oxadiazol-2-yl)isoindolin-1-one] | 97
O=C1c2cc(-c3nnc(C(F)F)o3)ccc2CN1c1ccccc1-c1ccc(F)cc1F [Example 310, 2-(2′,4′-difluorobiphenyl-2-yl)-6-(5-(difluoromethyl)-1,3,4-oxadiazol-2-yl)isoindolin-1-one] | 91
